Assay results taken from ChEMBL document CHEMBL1150213, “Protein-tyrosine kinase inhibition: mechanism-based discovery of antitumor agents” (J Nat Prod, 1992).

Molecular target: T1, Tyrosine-protein kinase transforming protein Abl (Abelson murine leukemia virus, UniProt P00521)
T1 sequence (P00521 whole entry): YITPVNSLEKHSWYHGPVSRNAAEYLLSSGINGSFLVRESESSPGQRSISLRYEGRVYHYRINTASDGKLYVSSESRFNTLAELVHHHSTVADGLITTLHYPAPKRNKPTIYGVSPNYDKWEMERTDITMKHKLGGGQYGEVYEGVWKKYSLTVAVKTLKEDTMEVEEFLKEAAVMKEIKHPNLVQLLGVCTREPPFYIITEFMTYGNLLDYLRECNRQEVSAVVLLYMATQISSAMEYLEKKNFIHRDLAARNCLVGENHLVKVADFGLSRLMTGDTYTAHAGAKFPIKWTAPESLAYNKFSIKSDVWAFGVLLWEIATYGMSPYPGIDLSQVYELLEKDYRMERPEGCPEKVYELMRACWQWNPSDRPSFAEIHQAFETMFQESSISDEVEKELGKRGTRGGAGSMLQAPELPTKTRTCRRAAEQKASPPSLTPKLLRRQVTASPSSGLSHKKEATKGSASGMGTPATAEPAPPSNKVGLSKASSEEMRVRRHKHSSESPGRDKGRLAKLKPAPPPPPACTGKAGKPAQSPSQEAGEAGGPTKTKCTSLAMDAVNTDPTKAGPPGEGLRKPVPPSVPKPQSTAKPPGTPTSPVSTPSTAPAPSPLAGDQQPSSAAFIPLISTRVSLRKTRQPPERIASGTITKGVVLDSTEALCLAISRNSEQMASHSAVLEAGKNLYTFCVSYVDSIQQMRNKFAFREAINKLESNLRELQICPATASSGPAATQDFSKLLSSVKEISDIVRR
Description: Inhibition of Abelson murine leukemia virus p60 v-abl

| IC50 | Structure (SMILES) |
| --- | --- |
| > 100 µM | Nc1ncnc2c1ncn2[C@@H]1O[C@H](COC(=O)c2ccc(S(=O)(=O)Oc3ccc(/C=C/[N+](=O)[O-])cc3)cc2)[C@@H](O)[C@H]1O |
| 40 µM | CC(=O)NC(Cc1ccc(NP(=O)(O)OP(=O)(O)OP(=O)(O)OC[C@H]2O[C@@H](n3cnc4c(N)ncnc43)[C@H](O)[C@@H]2O)cc1)C(N)=O (stereo not given in full) |
| 200 µM | Cc1ccc(NP(=O)(O)OP(=O)(O)OP(=O)(O)OC[C@H]2O[C@@H](n3cnc4c(N)ncnc43)[C@H](O)[C@@H]2O)cc1 |
| 50 µM | Nc1ncnc2c1ncn2[C@@H]1O[C@H](COC(=O)c2ccc(S(=O)(=O)NCc3ccccc3)cc2)[C@@H](O)[C@H]1O |
| > 40 µM | CNC(=O)c1ccc(S(=O)(=O)Oc2ccc(/C=C/[N+](=O)[O-])cc2)cc1 |
| 10 µM | Nc1ncnc2c1ncn2[C@@H]1O[C@H](COP(=O)(O)OP(=O)(O)OP(=O)(O)Oc2ccccc2)[C@@H](O)[C@H]1O |
| > 100 µM | COC(=O)c1ccc(S(=O)(=O)Oc2ccc(/C=C/[N+](=O)[O-])cc2)cc1 |
| 90 µM | COc1ccc(NP(=O)(O)OP(=O)(O)OP(=O)(O)OC[C@H]2O[C@@H](n3cnc4c(N)ncnc43)[C@H](O)[C@@H]2O)cc1 |
| 100 µM | CC(=O)NC(Cc1ccc(NP(=O)(O)OP(=O)(O)OP(=O)(O)OP(=O)(O)OC[C@H]2O[C@@H](n3cnc4c(N)ncnc43)[C@H](O)[C@@H]2O)cc1)C(N)=O (stereo not given in full) |
| 100 µM | CC(C)(C)OC(=O)NCCNC(=O)c1ccc(S(=O)(=O)Oc2ccc(/C=C/[N+](=O)[O-])cc2)cc1 |
| 100 µM | O=C(O)c1ccc(S(=O)(=O)Oc2ccc(/C=C/[N+](=O)[O-])cc2)c(O)c1 |
| 60 µM | CS(=O)(=O)c1ccc(C(=O)OC[C@H]2O[C@@H](n3cnc4c(N)ncnc43)[C@H](O)[C@@H]2O)cc1 |
| > 100 µM | CC(C)NC(=O)c1ccc(S(=O)(=O)Oc2ccc(/C=C/[N+](=O)[O-])cc2)cc1 |
| 20 µM | Nc1ncnc2c1ncn2[C@@H]1O[C@H](COC(=O)c2ccc(S(=O)(=O)Nc3ccccc3)cc2)[C@@H](O)[C@H]1O |
| > 100 µM | COC(=O)c1ccc(S(=O)(=O)Oc2ccc(/C=C/[N+](=O)[O-])cc2)cc1O |
| 100 µM | Nc1ncnc2c1ncn2[C@@H]1O[C@H](COC(=O)c2ccc(S(N)(=O)=O)cc2)[C@@H](O)[C@H]1O |
| 200 µM | Nc1ncnc2c1ncn2[C@@H]1O[C@H](COC(=O)c2ccc(S(=O)(=O)Oc3ccccc3)cc2)[C@@H](O)[C@H]1O |
| 100 µM | C[C@H](NC(=O)c1ccc(S(=O)(=O)Oc2ccc(/C=C/[N+](=O)[O-])cc2)cc1)C(=O)N[C@@H](C)C(=O)OC(C)(C)C |
| 400 µM | Nc1ncnc2c1ncn2[C@@H]1O[C@H](COP(=O)(O)OP(=O)(O)OP(=O)(O)OP(=O)(O)Oc2ccccc2)[C@@H](O)[C@H]1O |
| 40 µM | COc1cc(/C=C/[N+](=O)[O-])ccc1OS(=O)(=O)c1ccc(C(=O)O)cc1 |
| 100 µM | O=C(O)c1ccc(S(=O)(=O)Oc2ccc(/C=C/[N+](=O)[O-])cc2)cc1 |
| 100 µM | COc1cc(/C=C/[N+](=O)[O-])ccc1OS(=O)(=O)c1ccc(C(=O)OC[C@H]2O[C@@H](n3cnc4c(N)ncnc43)[C@H](O)[C@@H]2O)cc1 |
| 60 µM | Nc1ncnc2c1ncn2[C@@H]1O[C@H](COC(=O)c2ccc(S(=O)(=O)NCCCc3ccccc3)cc2)[C@@H](O)[C@H]1O |
| 30 µM | O=C(O)c1ccc(S(=O)(=O)Oc2ccc(/C=C/[N+](=O)[O-])cc2)cc1O |
| 30 µM | CC(=O)NCCNP(=O)(O)OP(=O)(O)OP(=O)(O)OC[C@H]1O[C@@H](n2cnc3c(N)ncnc32)[C@H](O)[C@@H]1O |
| 20 µM | Cc1ccc(NP(=O)(O)OP(=O)(O)OP(=O)(O)OP(=O)(O)OC[C@H]2O[C@@H](n3cnc4c(N)ncnc43)[C@H](O)[C@@H]2O)cc1 |
| 100 µM | CC(=O)NC(Cc1ccc(OS(=O)(=O)c2ccc(C(=O)OC[C@H]3O[C@@H](n4cnc5c(N)ncnc54)[C@H](O)[C@@H]3O)cc2)cc1)C(N)=O (stereo not given in full) |
| 40 µM | C[C@H](NC(=O)[C@H](C)NC(=O)c1ccc(S(=O)(=O)Oc2ccc(/C=C/[N+](=O)[O-])cc2)cc1)C(=O)O |
| > 5 µM | NCCNC(=O)c1ccc(S(=O)(=O)Oc2ccc(/C=C/[N+](=O)[O-])cc2)cc1 |

| Structure (SMILES) | IC50 |
| --- | --- |
| Nc1ncnc2c1ncn2[C@@H]1O[C@H](COC(=O)c2ccc(S(=O)(=O)F)cc2)[C@@H](O)[C@H]1O | 200 µM |

Molecular target: T2, Epidermal growth factor receptor (Homo sapiens, UniProt P00533)
T2 sequence (P00533 whole entry): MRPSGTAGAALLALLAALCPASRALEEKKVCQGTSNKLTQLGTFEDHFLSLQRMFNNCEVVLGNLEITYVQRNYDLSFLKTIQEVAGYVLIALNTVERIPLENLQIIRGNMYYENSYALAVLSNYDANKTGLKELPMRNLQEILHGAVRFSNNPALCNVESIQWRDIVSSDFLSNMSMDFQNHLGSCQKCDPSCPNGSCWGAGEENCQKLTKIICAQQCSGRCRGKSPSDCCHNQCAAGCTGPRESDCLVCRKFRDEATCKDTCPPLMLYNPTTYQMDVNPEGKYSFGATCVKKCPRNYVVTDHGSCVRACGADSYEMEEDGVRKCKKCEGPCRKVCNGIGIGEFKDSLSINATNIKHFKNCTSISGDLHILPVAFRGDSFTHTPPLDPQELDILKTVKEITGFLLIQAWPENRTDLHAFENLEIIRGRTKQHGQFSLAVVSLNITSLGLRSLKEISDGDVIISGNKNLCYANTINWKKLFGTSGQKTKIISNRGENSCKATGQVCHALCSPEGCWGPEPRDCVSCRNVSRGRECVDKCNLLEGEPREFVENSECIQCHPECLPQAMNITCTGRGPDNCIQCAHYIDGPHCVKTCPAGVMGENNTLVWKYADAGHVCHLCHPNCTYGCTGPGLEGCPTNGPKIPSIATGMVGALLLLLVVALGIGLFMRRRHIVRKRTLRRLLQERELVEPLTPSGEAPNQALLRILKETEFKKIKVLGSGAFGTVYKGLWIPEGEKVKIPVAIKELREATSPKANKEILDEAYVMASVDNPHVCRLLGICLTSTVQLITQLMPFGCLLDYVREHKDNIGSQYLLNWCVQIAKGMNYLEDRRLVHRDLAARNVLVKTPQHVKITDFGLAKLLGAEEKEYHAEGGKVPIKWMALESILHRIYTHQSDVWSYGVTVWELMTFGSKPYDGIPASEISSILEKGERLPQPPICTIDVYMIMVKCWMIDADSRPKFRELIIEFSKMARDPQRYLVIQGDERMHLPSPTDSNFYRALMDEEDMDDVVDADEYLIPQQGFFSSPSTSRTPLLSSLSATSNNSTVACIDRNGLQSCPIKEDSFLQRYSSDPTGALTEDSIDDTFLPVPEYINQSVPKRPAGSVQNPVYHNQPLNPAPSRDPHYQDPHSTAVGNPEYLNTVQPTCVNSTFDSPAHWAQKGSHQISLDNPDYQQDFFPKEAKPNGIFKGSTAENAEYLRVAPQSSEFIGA
Description: Inhibition of EGFR in human A431 cells

| IC50 | Structure (SMILES) |
| --- | --- |
| 2 µM | COC(=O)c1ccc(S(=O)(=O)Oc2ccc(/C=C/[N+](=O)[O-])cc2)cc1 |
| 1 µM | CC(C)(C)OC(=O)NCCNC(=O)c1ccc(S(=O)(=O)Oc2ccc(/C=C/[N+](=O)[O-])cc2)cc1 |
| 0.3 µM | O=C(O)c1ccc(S(=O)(=O)Oc2ccc(/C=C/[N+](=O)[O-])cc2)c(O)c1 |
| 1 µM | CC(C)NC(=O)c1ccc(S(=O)(=O)Oc2ccc(/C=C/[N+](=O)[O-])cc2)cc1 |
| 2 µM | COC(=O)c1ccc(S(=O)(=O)Oc2ccc(/C=C/[N+](=O)[O-])cc2)cc1O |
| 3 µM | COc1cc(/C=C/[N+](=O)[O-])ccc1OS(=O)(=O)c1ccc(C(=O)O)cc1 |
| 0.05 µM | O=C(O)c1ccc(S(=O)(=O)Oc2ccc(/C=C/[N+](=O)[O-])cc2)cc1O |
| 5 µM | NCCNC(=O)c1ccc(S(=O)(=O)Oc2ccc(/C=C/[N+](=O)[O-])cc2)cc1 |

| Structure (SMILES) | IC50 |
| --- | --- |
| O=c1cc(-c2ccc(O)cc2)oc2cc(O)cc(O)c12 [APIGENIN] | 111 µM |

Molecular target: T2, Epidermal growth factor receptor
Remark: another data set of the same source

| IC50 | Ki | Structure (SMILES) |
| --- | --- | --- |
| 52 µM | – | O=c1c(-c2ccc(O)cc2)c(CNC2=NCCS2)oc2cc(O)cc(O)c12 |
| 20 µM | – | CCOc1cc(/C=C(\C#N)C(N)=O)cc(CSc2ccc(C)cc2)c1O |
| 5.58 µM | – | O=CN/C=C/c1ccc(O)c(O)c1 |
| 1.67 µM | – | O=CN/C=C/c1cccc(O)c1O |
| 0.4 µM | – | N#C/C(=C\c1cc(-c2ccccc2)c(O)c(-c2ccccc2)c1)C(N)=O |
| > 61.3 µM | – | O=CN/C=C/c1ccc(O)cc1 |
| 0.6 µM | – | N#C/C(=C/c1cc(Cc2ccccc2)c(O)c(Cc2ccccc2)c1)C(N)=O |
| 0.4 µM | – | CC(C)c1cc(/C=C2\C(=O)Nc3ccccc32)cc(C(C)C)c1O |
| 0.9 µM | – | CCOc1cc(/C=C2/CCNC2=O)cc(CSc2ccccc2)c1O |
| 1 µM | – | CC(C)c1cc(/C=C(\C#N)C(N)=O)cc(C(C)C)c1O |
| 0.4 µM | – | CCOc1cc(/C=C(\C#N)C(N)=O)cc(CSc2ccccc2)c1O |
| 0.5 µM | – | COc1cc(/C=C(\C#N)C(N)=O)cc(CSc2ccccc2)c1O |
| > 24.8 µM | – | O=CN/C=C/c1cc(Br)ccc1O |
| 50 µM | – | CC(C)(C)c1cc(/C=C(\C#N)C(N)=O)cc(C(C)(C)C)c1O |
| 103 µM | – | COC(=O)/C=C/c1cc(O)ccc1O |
| > 613 µM | – | O=CN/C=C/c1ccccc1O |
| 0.4 µM | – | CSCc1cc(/C=C2\C(=O)Nc3ccccc32)cc(CSC)c1O |

| IC50 | Ki | Structure (SMILES) |
| --- | --- | --- |
| 0.8 µM | – | N#C/C(=C\c1cc(CSc2ccccc2)c(O)c(OCc2ccccc2)c1)C(N)=O |
| – | 4 µM | CC(C)C[C@H](NC(=O)[C@H](CCCNC(=N)N)NC(=O)[C@@H](N)CCCNC(=N)N)C(=O)N[C@@H](CCC(=O)O)C(=O)N[C@@H](CCC(=O)O)C(=O)N[C@@H](CCC(=O)O)C(=O)N[C@@H](CCC(=O)O)C(=O)N[C@@H](CCC(=O)O)C(=O)N[C@@H](C)C(=O)N[C@@H](Cc1c(F)c(F)c(O)c(F)c1F)C(=O)NCC(=O)O (stereo in doubt; 187L) |
| 10 µM | – | N#CC(C#N)=C1C(=O)Nc2ccc(O)cc21 |
| 15.5 µM | – | CC(=O)N/C=C/c1cc(O)ccc1O |
| 7.04 µM | – | Cc1oc2cc(O)cc(O)c2c(=O)c1-c1ccc(O)cc1 |
| 1 µM | – | CCOC(=O)C(=O)Oc1ccc(-c2c(C(=O)OCC)oc3cc(O)cc(O)c3c2=O)cc1 |
| 5.84 µM | – | CCOC(=O)c1oc2cc(O)cc(O)c2c(=O)c1-c1ccc(O)cc1 |
| > 167 µM | – | O=CN/C=C/c1ccc(O)cc1O |
| 3 µM | – | N#CC(C#N)=C1C(=O)Nc2cc(O)c(O)cc21 |
| 4.61 µM | – | O=CN/C=C/c1ccc(O)c(O)c1O |
| 6.36 µM | – | O=C(O)c1oc2cc(O)cc(O)c2c(=O)c1-c1ccc(O)cc1 |
| 3 µM | – | CCOc1cc(/C=C(\C#N)C(N)=O)cc(CSc2ccc(O)cc2)c1O |
| – | 20 µM | CC(C)C[C@H](NC(=O)[C@H](CCCNC(=N)N)NC(=O)[C@@H](N)CCCNC(=N)N)C(=O)N[C@@H](CCC(=O)O)C(=O)N[C@@H](CCC(=O)O)C(=O)N[C@@H](CCC(=O)O)C(=O)N[C@@H](CCC(=O)O)C(=O)N[C@@H](CCC(=O)O)C(=O)N[C@@H](C)C(=O)N[C@@H](Cc1c(F)c(F)c(O)c(F)c1F)C(=O)NCC(=O)O (stereo in doubt; 187D) |
| > 61.3 µM | – | O=CN/C=C/c1cccc(O)c1 |
| > 31.1 µM | – | COc1ccc(O)c(/C=C/NC=O)c1 |
| 44.4 µM | – | O=C(O)/C=C/c1cc(O)ccc1O |

| Structure (SMILES) | IC50 | Ki |
| --- | --- | --- |
| NC(=O)c1oc2cc(O)cc(O)c2c(=O)c1-c1ccc(O)cc1 | 31.9 µM | – |
| COC(=O)c1oc2cc(O)cc(O)c2c(=O)c1-c1ccc(O)cc1 | 6.09 µM | – |
| O=c1c(-c2ccc(O)cc2)c(CSC2=NCCS2)oc2cc(O)cc(O)c12 | 12.5 µM | – |
| CSCc1oc2cc(O)cc(O)c2c(=O)c1-c1ccc(O)cc1 | 15.1 µM | – |
| O=c1c(-c2ccc(O)cc2)c(CN2CCCCC2)oc2cc(O)cc(O)c12 | 27.2 µM | – |
| CC(C)OC(=O)c1oc2cc(O)cc(O)c2c(=O)c1-c1ccc(O)cc1 | 28.1 µM | – |
| CCOC(=O)CSCc1oc2cc(O)cc(O)c2c(=O)c1-c1ccc(O)cc1 | 9.94 µM | – |

Molecular target: Tyrosine-protein kinase Lck (Homo sapiens, UniProt P06239)
Sequence (P06239 whole entry): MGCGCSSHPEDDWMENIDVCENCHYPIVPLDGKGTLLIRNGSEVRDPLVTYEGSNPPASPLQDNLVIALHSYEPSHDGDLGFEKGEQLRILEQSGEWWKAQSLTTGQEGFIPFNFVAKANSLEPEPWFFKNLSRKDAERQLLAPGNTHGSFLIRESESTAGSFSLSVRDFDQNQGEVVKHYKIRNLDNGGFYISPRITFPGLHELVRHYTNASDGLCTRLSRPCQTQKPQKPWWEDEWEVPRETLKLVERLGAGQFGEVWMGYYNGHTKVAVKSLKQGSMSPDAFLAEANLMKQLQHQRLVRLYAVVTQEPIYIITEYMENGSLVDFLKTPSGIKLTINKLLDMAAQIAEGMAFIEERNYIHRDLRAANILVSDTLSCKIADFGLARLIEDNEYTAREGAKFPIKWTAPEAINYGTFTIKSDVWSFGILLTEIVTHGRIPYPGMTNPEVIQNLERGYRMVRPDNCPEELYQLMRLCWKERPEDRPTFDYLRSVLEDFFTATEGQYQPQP

| IC50 | Structure (SMILES) |
| --- | --- |
| > 2320 µM | O=c1cc(-c2ccc(OCc3ccccc3)cc2)oc2cccc(O)c12 |
| > 2340 µM | COc1ccc2oc(-c3cc(OC)c(OC)c(OC)c3)cc(=O)c2c1 |
| 163 µM | COc1cc(-c2cc(=O)c3ccc(O)cc3o2)cc(OC)c1O[Si](C)(C)C(C)(C)C |
| > 1800 µM | COc1cc(-c2cc(=O)c3ccc(O)c(O)c3o2)cc(OC)c1O[Si](C)(C)C(C)(C)C |
| 7 µM | Nc1ccc(-c2cc(=O)c3c(O)c(O)ccc3o2)cc1 |

| Structure (SMILES) | IC50 |
| --- | --- |
| O=c1cc(-c2ccc(O)cc2)oc2cc(O)cc(O)c12 [APIGENIN] | 14.8 µM |
